Experimental data as given in US3959272A, “Aminoalkyl esters of 2-anilino-nicotinic acids” (Societe Anonyme dite: Hexachime, priority 1972, dated 1976).

Experiments:
[1] = dog, in vivo
Protocol: The product of Example 1 was perfused in the dog at a dosage of 50 mg/minute by the saphena vein. Cardiac arrest was produced by a dose of 344 mg/kg.

[2] = Hypnotic activity in rats or mice (loss of righting reflex); type: in vivo; settings: for % of sleeping animals: mice
Protocol: (§1) The compounds under test were administered to rats or mice intraperitoneally. The loss of the righting reflex was noted and the duration of sleep measured objectively with reference to the loss of the righting reflex. The compounds under test were also administered by slow perfusion to dogs. The moment when the dog fell asleep and the duration of sleep was noted.

[3] = Chronic toxicity in beagle dogs, 3 months; type: in vivo, beagle dog; settings: 150 mg/kg each day for 3 months
Protocol: Six beagle dogs (3 male and 3 female) received each day for 3 months 150 mg/kg of the product of Example 1.

[4] = Analgesic activity: Randall and Selitto's test (beer yeast paw, pain threshold); type: in vivo, rat
Protocol: This activity was measured by Siegmund's test in mice and Randall and Selitto's test in the rat. Groups of ten male rats each weight 120 to 140 g received by subcutaneous plantar injection 0.05 ml of a 5% aqueous suspension of beer yeast. 2 Hours after this treatment they received the compound under test orally and 1 hour after administration of this compound the paw which had been injected and the contralateral paw were subjected to increasing pressure. The appearance of the pain threshold was noted.

[5] = Overall result of the pharmacological tests; type: in vivo; settings: according to the results obtained
Description: The new compounds show these properties in the tests usually used to determine them.

[6] = Analgesic activity: Siegmund's test (phenylbenzoquinone painful reactions); type: in vivo; settings: Mus musculus, po, read-out: percentage inhibition of reactions
Protocol: This activity was measured by Siegmund's test in mice and Randall and Selitto's test in the rat.
Groups of six mice received the compound under test orally 1 hour before intraperitoneal injection of 0.2 ml of an 0.02% of solution of phenylbenzoquinone. The number of painful reactiors from the fifth to the tenth minute after the injection of phenylbenzoquinone was counted.

[7] = Action on the activity of noradrenaline in dogs; settings: dog, in vivo
[8] = type: in vivo, dog; settings: 48 mg/kg intravenously at 1 mg/kg/minute; two dogs
Protocol: as §1
Two dogs each weighing 11 kg. received intravenously 48 mg/kg of the product of Example 1 perfused at the rate of 1 mg/kg/minute. Sleep appeared at the end of 25 minutes and lasted for 15 minutes. The animals were sleepy for 1 hour after the end of the perfusion.

[9] = Laparotomy test; type: in vivo, rat; settings: as the hydrochloride; for ED50: Rattus norvegicus, ip, intraperitoneal
Protocol: Rats weighing 110 to 130 g each received the product of Example 1 (as the hydrochloride) by intraperitoneal injection. 10 or 30 Minutes after the treatment, the animals are examined to see:
1. If they allow themselves to remain lying on their backs;
3. if they tolerate an incision into the skin; and
4. if they tolerate an incision into the muscle. If an animal submits without reaction it is counted as zero, and if it reacts it is counted as one. The total score is calculated for each dosage. The following table gives the percentage protection and the number of sleeping rats.

[10] = Post-operative pain following bone surgery, patients; type: in vivo, human (patients)
Protocol: The product of Example 1 has been administered to patients suffering from post-operative pain following bone surgery. 10 Patients received the compound at a daily dosage of 150 mg orally. Complete or partial analgesia was felt by 5 patients and slight analgesia by a further 4. When administered intramuscularly at a dosage of 20 to 100 mg per day to 9 patients, the product of Example 1 produced complete analgesia in 5, partial analgesia in 2 and slight analgesia in the remaining 2. […] Eight patients received the product of Example 1 rectally in a dosage of 300 mg per day.

[11] = Potentiation of stereotypes by amphetamine; type: in vivo, rat; settings: 5 mg/kg dexamphetamine sulphate
Protocol: The compound under test was administered to groups of 5 rats intraperitoneally. Thirty minutes afterwards, 5 mg/kg of dexamphetamine sulphate was injected intraperitoneally. The duration of the phenomenon is counted at regular intervals from 0 to 4 and the counts are added up.

[12] = 150 mg daily orally, 10 patients
[13] = 300 mg per day rectally, eight patients
[14] = 20 to 100 mg per day intramuscularly, 9 patients
[15] = 50 to 100 mg per day intravenously, slow injection, 13 patients

Cc1cccc(Nc2ncccc2C(=O)OCCN2CCOCC2)c1C [Example 1, β-Morpholino ethyl nixylate]
dose producing cardiac arrest [1]: 344 mg/kg
% of sleeping animals ([2]; 50 mg/kg intraperitoneally): 0%
% of sleeping animals ([2]; 75 mg/kg intraperitoneally): 46%
% of sleeping animals ([2]; 100 mg/kg intraperitoneally): 57%
% of sleeping animals ([2]; 125 mg/kg intraperitoneally): 84%
% of sleeping animals ([2]; 200 mg/kg intraperitoneally): 92%
% of sleeping animals ([2]; 250 mg/kg intraperitoneally): 100%
sleep caused ([2]; only this product of those tested): caused sleep
biochemical and hematological characteristics [3]: No modification attributable to the treatment was observed
histological examination of the organs [3]: normal
mortality [3]: No mortality was observed
weights of the dogs [3]: remained normal
percentage increase of pain threshold ([4]; with yeast, 8 mg/kg orally): 15%
percentage increase of pain threshold ([4]; with yeast, 16 mg/kg orally): 68%
percentage increase of pain threshold ([4]; with yeast, 32 mg/kg orally): 90%
percentage increase of pain threshold ([4]; with yeast, 64 mg/kg orally): 83%
percentage increase of pain threshold ([4]; with yeast, 128 mg/kg orally): 120%
percentage increase of pain threshold ([4]; with yeast, 256 mg/kg orally): 161%
percentage increase of pain threshold ([4]; without yeast, 8 mg/kg orally): 37%
percentage increase of pain threshold ([4]; without yeast, 16 mg/kg orally): 29%
percentage increase of pain threshold ([4]; without yeast, 32 mg/kg orally): 51%
percentage increase of pain threshold ([4]; without yeast, 64 mg/kg orally): 72%
percentage increase of pain threshold ([4]; without yeast, 128 mg/kg orally): 101%
percentage increase of pain threshold ([4]; without yeast, 256 mg/kg orally): 126%
activity relative to the other compounds [5]: the most active compound
inhibition in vivo at 4 mg/kg ([6]; 4 mg/kg orally): 10%
inhibition in vivo at 8 mg/kg ([6]; 8 mg/kg orally): 26%
inhibition in vivo at 16 mg/kg ([6]; 16 mg/kg orally): 26%
inhibition in vivo at 32 mg/kg ([6]; 32 mg/kg orally): 45%
inhibition in vivo at 64 mg/kg ([6]; 64 mg/kg orally): 64%
inhibition in vivo at 128 mg/kg ([6]; 128 mg/kg orally): 83%
inhibition in vivo at 256 mg/kg ([6]; 256 mg/kg orally): 95%
action on the activity of noradrenaline [7]: without action on the activity of noradrenaline
duration of sleep [8]: 15 min
time animals were sleepy after the end of the perfusion [8]: 1 h
time at which sleep appeared [8]: 25 min
ED50 ([9]; 10 min, 10 min after treatment): 44 mg/kg
ED50 ([9]; 0.5 h, 30 min after treatment): 100 mg/kg
Percentage protection ([9]; 16 mg/kg intraperitoneally, 10 min after treatment, 12 rats): 6%
Number of sleeping rats ([9]; 16 mg/kg intraperitoneally, 10 min after treatment, of 12 rats): 0
Percentage protection ([9]; 16 mg/kg intraperitoneally, 30 min after treatment, 6 rats): 0%
Number of sleeping rats ([9]; 16 mg/kg intraperitoneally, 30 min after treatment, of 6 rats): 0
Percentage protection ([9]; 32 mg/kg intraperitoneally, 10 min after treatment, 12 rats): 34%
Number of sleeping rats ([9]; 32 mg/kg intraperitoneally, 10 min after treatment, of 12 rats): 0
Percentage protection ([9]; 32 mg/kg intraperitoneally, 30 min after treatment, 6 rats): 0%
Number of sleeping rats ([9]; 32 mg/kg intraperitoneally, 30 min after treatment, of 6 rats): 0
Percentage protection ([9]; 64 mg/kg intraperitoneally, 10 min after treatment, 24 rats): 62%
Number of sleeping rats ([9]; 64 mg/kg intraperitoneally, 10 min after treatment, of 24 rats): 0
Percentage protection ([9]; 64 mg/kg intraperitoneally, 30 min after treatment, 24 rats): 34%
Number of sleeping rats ([9]; 64 mg/kg intraperitoneally, 30 min after treatment, of 24 rats): 0
Percentage protection ([9]; 128 mg/kg intraperitoneally, 10 min after treatment, 12 rats): 96%
Number of sleeping rats ([9]; 128 mg/kg intraperitoneally, 10 min after treatment, of 12 rats): 0
Percentage protection ([9]; 128 mg/kg intraperitoneally, 30 min after treatment, 12 rats): 62%
Number of sleeping rats ([9]; 128 mg/kg intraperitoneally, 30 min after treatment, of 12 rats): 8
Percentage protection ([9]; 256 mg/kg intraperitoneally, 30 min after treatment, 6 rats): 92%
Number of sleeping rats ([9]; 256 mg/kg intraperitoneally, 30 min after treatment, of 6 rats): 6
complete or partial analgesia [10, 12]: 5 patients
slight analgesia [10, 12]: 4 patients
moderate analgesia [10, 13]: one
no analgesia [10, 13]: the last one no analgesia
strong analgesia [10, 13]: Six
complete analgesia [10, 14]: 5 patients
partial analgesia [10, 14]: 2 patients
slight analgesia [10, 14]: 2 patients
complete analgesia [10, 15]: 9 patients
moderate analgesia [10, 15]: 3 patients
no analgesia [10, 15]: no analgesia in the remaining patient
Sum of the counts (stereotypes) ([11]; 8 mg/kg intraperitoneally): 14
Sum of the counts (stereotypes) ([11]; 16 mg/kg intraperitoneally): 18
Sum of the counts (stereotypes) ([11]; 32 mg/kg intraperitoneally): 21
Sum of the counts (stereotypes) ([11]; 64 mg/kg intraperitoneally): 33
Sum of the counts (stereotypes) ([11]; 128 mg/kg intraperitoneally): 43
